Type in all cases: in vivo
One test relates to milkweed bug. Put plainly: topical application to milkweed bug, fourth nymphal stage, maturation inhibition. The source says:
(§1) The compounds were applied in acetone solution at concentrations of 10 percent, 1 percent and 0.5 percent. One microliter of the acetone solution was applied to each test specimen. Ten test specimens were employed for each insect at each concentration and compared to ten acetone controls and ten zero controls. Approximately eight to ten days were required before results could be ascertained.
(§2) The insect species used in the test were Tenebrio molitor pupae; milkweed bug, fourth nymphal stage; wax moth, fifth larval stage; and Mexican bean beetle, fourth larval stage. At the completion of the test, each specimen was examined for the degree of juvenile and adult characteristics. The milkweed bug, wax moth, and Mexican bean beetle were assigned a numerical rating of 0 to 3 with 0 indicating no effect and 3 indicating the maximum effect or least adult development. Because of differences in morphology the Tenebrio rating scale was 0 to 4. In all cases a rating of 2 or higher means that the insect is incapable of reproduction. The number of specimens in each rating classification are given. In any test were the total of specimens reported is less than 10, those unreported died in some metamorphic stage. Such deaths indicate control, since the dead insects are not capable of reproducing.

The test system of a further test is Mexican bean beetle. Put plainly: topical application to Mexican bean beetle, fourth larval stage, maturation inhibition. To be noted: rating scale 0-3.
Description: as §1, §2

For another test, the system named is Tenebrio molitor pupae. Put plainly: topical application to Tenebrio molitor pupae, maturation inhibition. To be noted: rating scale 0-4.
Description: as §1, §2

Consider `CC(C)=CCC/C(C)=C/CCc1ccc(Br)cc1` [trans-9-(4-BROMOPHENYL)-2,6-DIMETHYL-2,6-NONADIENE], for which the “number of specimens in rating 3” value in the test on milkweed bug (0.5%, rating scale 0-3) amounted to 10 specimens; with milkweed bug (1%, rating scale 0-3), 10 specimens; with milkweed bug (10%, rating scale 0-3), 9 specimens; in the test on Mexican bean beetle (0.5%) it was 10 specimens; in the test on Mexican bean beetle (1%), 10 specimens; in the test on Mexican bean beetle (10%), 10 specimens. Also, the “number of specimens in rating 0” value with Tenebrio molitor pupae (0.5%) was 8 specimens; in the test with Tenebrio molitor pupae (1%) it was 9 specimens. In addition, the “number of specimens in rating 1” value in the test on Tenebrio molitor pupae (0.5%) and in the test on Tenebrio molitor pupae (1%) was 1 specimens throughout. Also, the “number of specimens in rating 4” value in the test on Tenebrio molitor pupae (0.5%) was determined as 1 specimens; in the test on Tenebrio molitor pupae (10%) it was 10 specimens.
For `CCCCCCCCCc1ccc2c(c1)OCO2` [5-(n-NONYL)-1,3-BENZODIOXOLE], the “number of specimens in rating 0” value in the test with milkweed bug (0.5%, rating scale 0-3) is 8 specimens; with milkweed bug (1%, rating scale 0-3), 3 specimens; with milkweed bug (10% in acetone, 1 microliter topical, rating scale 0 (no effect) to 3 (maximum)) it was 4 specimens; in the test on Mexican bean beetle (0.5%), 9 specimens; with Mexican bean beetle (1%), 10 specimens; in the test on Tenebrio molitor pupae (0.5%), 6 specimens. Moreover, the “number of specimens in rating 0” value in the test on Tenebrio molitor pupae (1%) is given as 2 specimens. Also, the “number of specimens in rating 1” value amounted to 1 specimens in the test with milkweed bug (0.5%, rating scale 0-3); 1 specimens in the test with milkweed bug (1%, rating scale 0-3); 1 specimens with Tenebrio molitor pupae (0.5%). The “number of specimens in rating 2” value in the test on milkweed bug (1%, rating scale 0-3) worked out at 1 specimens; in the test with milkweed bug (10%, rating scale 0-3) it was 1 specimens; in the test with Tenebrio molitor pupae (0.5%), 3 specimens; in the test on Tenebrio molitor pupae (1%), 5 specimens. For the same compound, the “number of specimens in rating 3” value with milkweed bug (1%, rating scale 0-3) worked out at 4 specimens; in the test with milkweed bug (10%, rating scale 0-3), 5 specimens; with Mexican bean beetle (10%) it was 8 specimens; with Tenebrio molitor pupae (1%), 1 specimens; with Tenebrio molitor pupae (10%) it was 3 specimens. Moreover, the “number of specimens in rating 4” value with Tenebrio molitor pupae (1%) is 1 specimens; in the test with Tenebrio molitor pupae (10%) it was 7 specimens.
For the compound `CC(C)CCCC(C)CCCc1ccc2c(c1)OCO2` (centres unmarked) [9-(3,4-methylenedioxyphenyl)-2,6-dimethylnonane], the “number of specimens in rating 3” value with milkweed bug (0.5%, rating scale 0-3) came out at 8 specimens; in the test with milkweed bug (1%, rating scale 0-3), 10 specimens; with milkweed bug (10%, rating scale 0-3), 8 specimens; in the test with Tenebrio molitor pupae (0.5%), 3 specimens. Further, the results for the “number of specimens in rating 4” value in the test on Tenebrio molitor pupae (0.5%), with Tenebrio molitor pupae (1%) and with Tenebrio molitor pupae (10%) were 7 specimens, 10 specimens and 10 specimens, respectively.
In the case of `CCC(C)=CCCC(C)=CCCc1ccc2c(c1)OCO2` [3,7-DIMETHYL-10-(3,4-METHYLENEDIOXYPHENYL)-3,7-DECADIENE], the “number of specimens in rating 1” value in the test on milkweed bug (0.5%, rating scale 0-3) is recorded as 1 specimens. Also, the “number of specimens in rating 3” value with milkweed bug (0.5%, rating scale 0-3) is given as 8 specimens; in the test on milkweed bug (1%, rating scale 0-3), 9 specimens; with milkweed bug (10%, rating scale 0-3), 5 specimens. The “number of specimens in rating 4” value in the test on Tenebrio molitor pupae (0.5%), in the test on Tenebrio molitor pupae (1%) and in the test with Tenebrio molitor pupae (10%) was 10 specimens each time.

Source of the values: patent US3962282A, “Juvenile hormone mimics” (priority 1974, dated 1976).
